Assay results: US7700592B2, “α2C adrenoreceptor agonists” (Schering Corporation, priority 2005, dated 2010)

Target: T1, α2C receptor (Homo sapiens, UniProt P18825)
T1 sequence (P18825 1-462): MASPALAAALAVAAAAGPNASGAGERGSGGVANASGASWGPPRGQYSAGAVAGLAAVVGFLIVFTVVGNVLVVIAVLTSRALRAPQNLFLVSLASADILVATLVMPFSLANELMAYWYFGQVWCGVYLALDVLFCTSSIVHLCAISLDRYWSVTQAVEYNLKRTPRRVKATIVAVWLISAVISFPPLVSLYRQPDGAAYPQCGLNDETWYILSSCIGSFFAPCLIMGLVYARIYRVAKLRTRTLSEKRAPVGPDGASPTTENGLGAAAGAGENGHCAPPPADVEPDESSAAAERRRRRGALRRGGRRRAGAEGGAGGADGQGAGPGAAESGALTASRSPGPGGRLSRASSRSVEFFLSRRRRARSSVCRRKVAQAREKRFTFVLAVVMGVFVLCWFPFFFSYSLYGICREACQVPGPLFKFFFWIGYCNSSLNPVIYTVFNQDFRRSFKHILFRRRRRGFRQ
Test: GTPγS assay, efficacy agonist activity (Emax) for α2C
Format: biochemical
Conditions: active agonist = efficacy at α2C ≧30% Emax; functionally selective = additionally efficacy at α2A ≦30% Emax (GTPγS assay)
Summary of the method: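 Emax measured in a [^35S]GTPγS functional assay at the human α2C adrenoceptor, following Umland et al. An efficacy of ≧30% Emax defines an active α2C agonist.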

| SMILES | Efficacy agonist activity (Emax, GTPγS assay) for α2C: evaluated as active or functionally selective agonist |
| --- | --- |
| O=C(Nc1ccc2c(c1)N(Cc1c[nH]cn1)CCO2)OCc1cc2cccnc2s1 [Compound 311] | active or functionally selective agonists of the α2C receptor subtype |
| O=C(Nc1ccc2c(c1)N(Cc1c[nH]cn1)CCO2)OCc1nc2ccccc2s1 [Compound 312] | active or functionally selective agonists of the α2C receptor subtype |
| O=C(Nc1ccc2c(c1)N(Cc1c[nH]cn1)CCO2)OCc1ccnc(Cl)c1 [Compound 314] | active or functionally selective agonists of the α2C receptor subtype |
| O=C(Nc1ccc2c(c1)N(Cc1c[nH]cn1)CCO2)OCC1CCC1 [Compound 315] | active or functionally selective agonists of the α2C receptor subtype |
| O=C(Nc1ccc2c(c1)N(Cc1c[nH]cn1)CCO2)OCc1ccc2sccc2c1 [Compound 316] | active or functionally selective agonists of the α2C receptor subtype |
| Cc1cc(COC(=O)Nc2ccc3c(c2)N(Cc2c[nH]cn2)CCO3)no1 [Compound 317] | active or functionally selective agonists of the α2C receptor subtype |
| O=C(Nc1ccc2c(c1)N(Cc1c[nH]cn1)CCO2)OCc1cccnc1 [Compound 318] | active or functionally selective agonists of the α2C receptor subtype |
| CCN(C(=O)OCCSC)c1ccc2c(c1)N(Cc1c[nH]cn1)CCO2 [Compound 319] | active or functionally selective agonists of the α2C receptor subtype |
| CCN(C(=O)OCc1cc(C)nn1C)c1ccc2c(c1)N(Cc1c[nH]cn1)CCO2 [Compound 323] | active or functionally selective agonists of the α2C receptor subtype |
| CCN(C(=O)OCc1cc(C)n(C)n1)c1ccc2c(c1)N(Cc1c[nH]cn1)CCO2 [Compound 324] | active or functionally selective agonists of the α2C receptor subtype |
| CCN(c1ccc2c(c1)N(Cc1c[nH]cn1)CCO2)c1ccccn1 [Compound 326] | active or functionally selective agonists of the α2C receptor subtype |
| CCN(c1ccc2c(c1)N(Cc1c[nH]cn1)CCO2)c1nccs1 [Compound 327] | active or functionally selective agonists of the α2C receptor subtype |
| CCN(c1ccc2c(c1)N(Cc1c[nH]cn1)CCO2)c1cnccn1 [Compound 329] | active or functionally selective agonists of the α2C receptor subtype |
| CCN(c1ccc2c(c1)N(Cc1c[nH]cn1)CCO2)c1ncc([N+](=O)[O-])s1 [Compound 331] | active or functionally selective agonists of the α2C receptor subtype |
| CN(c1ccc2c(c1)N(Cc1c[nH]cn1)CCO2)c1ccccn1 [Compound 332] | active or functionally selective agonists of the α2C receptor subtype |
| CCN(c1ccc2c(c1)N(Cc1c[nH]cn1)CCO2)S(=O)(=O)CCN1C(=O)c2ccccc2C1=O [Compound 335] | active or functionally selective agonists of the α2C receptor subtype |
| Cc1cc(COC(=O)Nc2ccc3c(c2)N(Cc2c[nH]cn2)CCO3)n(C)n1 [Compound 340] | active or functionally selective agonists of the α2C receptor subtype |
